Reference: paper PMC3914206

Tests used:
panel of 442 kinases [1] = molecular target: T1, panel of 442 kinases (Homo sapiens, UniProt Q14012); assay type: binding; parameters: KINOMEscan: ABL1(F317L)-phosphorylated / KINOMEscan: ABL1(H396P)-nonphosphorylated / KINOMEscan: ABL1(H396P)-phosphorylated / KINOMEscan: ABL1(M351T)-phosphorylated / KINOMEscan: ABL1(T315I)-phosphorylated / KINOMEscan: ABL1-nonphosphorylated / KINOMEscan: ABL1-phosphorylated / KINOMEscan: ACVR2A / KINOMEscan: ACVR2B / KINOMEscan: ADCK3 / KINOMEscan: ADCK4 / KINOMEscan: AKT1 / KINOMEscan: AKT3 / KINOMEscan: ALK / KINOMEscan: ARK5 / KINOMEscan: AURKA / KINOMEscan: AURKC / KINOMEscan: BIKE / KINOMEscan: BMPR1A / KINOMEscan: BMPR1B / KINOMEscan: BMX / KINOMEscan: BRK / KINOMEscan: BRSK1 / KINOMEscan: BRSK2 / KINOMEscan: CAMK1 / KINOMEscan: CAMK1D / KINOMEscan: CAMK1G / KINOMEscan: CAMK2A / KINOMEscan: CAMK2B / KINOMEscan: AAK1 / KINOMEscan: CAMK2D / KINOMEscan: CAMK2G / KINOMEscan: ABL1(F317I)-nonphosphorylated / KINOMEscan: ABL1(F317I)-phosphorylated / KINOMEscan: ABL1(F317L)-nonphosphorylated: unit: % Ctrl; conditions: Compound Concentration 10 µM
T1 construct: purchased KINOMEscan
T1 sequence (Q14012 whole entry): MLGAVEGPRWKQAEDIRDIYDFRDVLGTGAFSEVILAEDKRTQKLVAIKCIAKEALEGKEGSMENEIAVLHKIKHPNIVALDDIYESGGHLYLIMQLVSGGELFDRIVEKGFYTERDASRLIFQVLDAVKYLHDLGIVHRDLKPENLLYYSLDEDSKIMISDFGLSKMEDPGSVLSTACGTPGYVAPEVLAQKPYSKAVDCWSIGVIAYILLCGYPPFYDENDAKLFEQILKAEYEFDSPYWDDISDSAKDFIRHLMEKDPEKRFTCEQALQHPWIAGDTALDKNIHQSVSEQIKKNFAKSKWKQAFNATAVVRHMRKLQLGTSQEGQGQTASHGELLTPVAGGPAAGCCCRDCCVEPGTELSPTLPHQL
Source text: (§1) We assessed the selectivity of members of this scaffold using the KINOMEscan methodology across a near comprehensive panel of 442 kinases [[18,27]].

panel of 442 kinases [2] = molecular target: T2, panel of 442 kinases (Homo sapiens, UniProt Q8WXR4); assay type: binding; parameters: KINOMEscan: ABL1(F317L)-phosphorylated / KINOMEscan: ABL1(H396P)-nonphosphorylated / KINOMEscan: ABL1(H396P)-phosphorylated / KINOMEscan: ABL1(M351T)-phosphorylated / KINOMEscan: ABL1(T315I)-phosphorylated / KINOMEscan: ABL1-nonphosphorylated / KINOMEscan: ABL1-phosphorylated / KINOMEscan: ACVR2A / KINOMEscan: ACVR2B / KINOMEscan: ADCK3 / KINOMEscan: ADCK4 / KINOMEscan: AKT1 / KINOMEscan: AKT3 / KINOMEscan: ALK / KINOMEscan: ARK5 / KINOMEscan: AURKA / KINOMEscan: AURKC / KINOMEscan: BIKE / KINOMEscan: BMPR1A / KINOMEscan: BMPR1B / KINOMEscan: BMX / KINOMEscan: BRK / KINOMEscan: BRSK1 / KINOMEscan: BRSK2 / KINOMEscan: CAMK1 / KINOMEscan: CAMK1D / KINOMEscan: CAMK1G / KINOMEscan: CAMK2A / KINOMEscan: CAMK2B / KINOMEscan: AAK1 / KINOMEscan: CAMK2D / KINOMEscan: CAMK2G / KINOMEscan: ABL1(F317I)-nonphosphorylated / KINOMEscan: ABL1(F317I)-phosphorylated / KINOMEscan: ABL1(F317L)-nonphosphorylated: unit: % Ctrl; conditions: Compound Concentration 10 µM
T2 construct: purchased KINOMEscan
T2 sequence (Q8WXR4 1-1341): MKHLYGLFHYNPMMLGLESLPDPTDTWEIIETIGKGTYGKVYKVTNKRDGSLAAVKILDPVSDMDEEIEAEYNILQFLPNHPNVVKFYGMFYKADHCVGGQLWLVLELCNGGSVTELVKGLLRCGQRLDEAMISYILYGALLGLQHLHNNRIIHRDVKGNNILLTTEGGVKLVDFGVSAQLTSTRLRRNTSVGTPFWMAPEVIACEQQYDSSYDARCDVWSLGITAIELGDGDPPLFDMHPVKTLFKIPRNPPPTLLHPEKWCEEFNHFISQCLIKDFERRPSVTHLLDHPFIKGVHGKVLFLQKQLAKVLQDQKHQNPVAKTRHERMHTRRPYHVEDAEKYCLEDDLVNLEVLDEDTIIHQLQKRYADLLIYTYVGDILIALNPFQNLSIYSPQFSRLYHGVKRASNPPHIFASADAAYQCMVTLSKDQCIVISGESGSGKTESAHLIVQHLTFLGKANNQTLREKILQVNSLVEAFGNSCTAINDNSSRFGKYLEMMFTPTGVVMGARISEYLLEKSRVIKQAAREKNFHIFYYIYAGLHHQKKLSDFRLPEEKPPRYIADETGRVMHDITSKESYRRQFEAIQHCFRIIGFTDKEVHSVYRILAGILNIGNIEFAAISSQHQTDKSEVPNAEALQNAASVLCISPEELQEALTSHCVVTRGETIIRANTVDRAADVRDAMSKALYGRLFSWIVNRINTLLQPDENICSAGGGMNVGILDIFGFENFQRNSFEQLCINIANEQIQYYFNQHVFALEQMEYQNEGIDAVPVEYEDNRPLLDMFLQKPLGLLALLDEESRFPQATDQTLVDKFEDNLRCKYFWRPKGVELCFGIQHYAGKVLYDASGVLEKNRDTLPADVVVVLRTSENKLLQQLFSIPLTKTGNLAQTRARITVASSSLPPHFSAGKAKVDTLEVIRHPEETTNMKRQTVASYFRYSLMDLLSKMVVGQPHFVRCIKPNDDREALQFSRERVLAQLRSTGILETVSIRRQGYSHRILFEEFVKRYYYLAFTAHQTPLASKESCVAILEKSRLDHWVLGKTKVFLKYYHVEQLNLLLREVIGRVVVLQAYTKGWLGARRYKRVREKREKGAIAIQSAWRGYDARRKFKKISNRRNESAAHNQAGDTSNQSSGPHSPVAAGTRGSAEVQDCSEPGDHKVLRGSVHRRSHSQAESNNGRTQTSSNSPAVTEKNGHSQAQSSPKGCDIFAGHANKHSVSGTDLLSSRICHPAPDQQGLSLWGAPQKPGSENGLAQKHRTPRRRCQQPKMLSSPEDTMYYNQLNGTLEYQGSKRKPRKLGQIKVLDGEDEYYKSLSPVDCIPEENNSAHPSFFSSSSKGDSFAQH
Source text: as §1

| SMILES | KINOMEscan: CAMK1 (panel of 442 kinases [1]) | KINOMEscan: MYO3B (panel of 442 kinases [2]) |
| --- | --- | --- |
| CCOc1cc(C(=O)N2CCC(N3CCN(C)CC3)CC2)ccc1Nc1ncc2c(n1)N(C1CCCC1)c1ccccc1C(=O)N2C [Compound 26] | 37 | 100 |
| COc1cc(C(=O)N2CCC(N3CCN(C)CC3)CC2)ccc1Nc1ncc2c(n1)N(C1CCCC1)c1ccccc1C(=O)N2C [Compound 25, 11-cyclopentyl-2-((2-methoxy-4-(4-(4-methylpiperazin-1-yl)piperidine-1-carbonyl)phenyl)amino)-5-methyl-5H-benzo[e]pyrimido[5,4-b][1,4]diazepin-6(11H)-one] | 48 | 100 |
| COc1cc(C(=O)N2CCC(N3CCN(C)CC3)CC2)ccc1Nc1ncc2c(n1)N1CCc3cccc(c31)C(=O)N2C [Compound 24] | 68 | 76 |
| COc1cc(C(=O)N2CCC(N3CCN(C)CC3)CC2)ccc1Nc1ncc2c(n1)N(C)c1ccccc1C(=O)N2C [15 (LRRK2-IN-1)] | 55 | 83 |
